In patent US20230167094A1, “H4 ANTAGONIST COMPOUNDS” (Heptares Therapeutics Limited, priority 2020, published 2023):

What was measured:
human H4 receptor = molecular target: T1, human H4 receptor (Homo sapiens, UniProt Q9H3N8); test: H4 Antagonist Functional Dynamic Mass Redistribution Assay; assay type: cell-based; settings: HEKf cells expressing human H4 receptor, antagonist mode vs histamine EC80, pKb by Cheng-Prusoff; for Kb: read-out: Human H4 DMR fpKb (converted)
T1 construct: expressed in transfected cells; host or cells: HEKf cells infected with baculovirus
Procedure: H4 Antagonist Functional Dynamic Mass Redistribution Assay
HEKf cells were infected using baculovirus expressing the human H4 receptor, plated into fibronectin-coated EPIC plates at a density of 10,000 cells/well and incubated overnight at 37° C. The medium on cells was changed to […] HBSS with 20 mM HEPES per well and 30 nL DMSO were added per well by LabCyte ECHO acoustic dispensing. Following 2 h equilibration at room temperature, 30 nL of H4 ligands prepared in DMSO were stamped by LabCyte ECHO acoustic dispensing into seeded EPIC plates and cellular dynamic mass redistribution was monitored using a Corning EPIC plate reader. Following 45 min measurement, 30 nL/well of histamine EC80 was added and monitored to obtain antagonist assay data. Maximum baseline-corrected responses in pm were used to generate concentration response curves. EC50 values were generated using a 4-parameter logistical fit equation to quantify agonist potencies. Functional antagonist affinity values were generated using the Cheng-Prusoff equation to calculate a pKb value using the antagonist assay data.

hERG = hERG (Homo sapiens, UniProt Q12809); test: hERG assay (QPatch automated patch clamp, CHO cells); assay type: cell-based; settings: CHO cells stably expressing hERG, 1, 3, 10 and 30 μM, tail current, room temperature; for IC50: read-out: hERG pIC50 (converted)
Procedure: All experiments were performed on the QPatch automated patch clamp platform.
Series resistance (4-15 MΩ) was compensated by >80%.

Chain of hERG (Q12809 whole entry): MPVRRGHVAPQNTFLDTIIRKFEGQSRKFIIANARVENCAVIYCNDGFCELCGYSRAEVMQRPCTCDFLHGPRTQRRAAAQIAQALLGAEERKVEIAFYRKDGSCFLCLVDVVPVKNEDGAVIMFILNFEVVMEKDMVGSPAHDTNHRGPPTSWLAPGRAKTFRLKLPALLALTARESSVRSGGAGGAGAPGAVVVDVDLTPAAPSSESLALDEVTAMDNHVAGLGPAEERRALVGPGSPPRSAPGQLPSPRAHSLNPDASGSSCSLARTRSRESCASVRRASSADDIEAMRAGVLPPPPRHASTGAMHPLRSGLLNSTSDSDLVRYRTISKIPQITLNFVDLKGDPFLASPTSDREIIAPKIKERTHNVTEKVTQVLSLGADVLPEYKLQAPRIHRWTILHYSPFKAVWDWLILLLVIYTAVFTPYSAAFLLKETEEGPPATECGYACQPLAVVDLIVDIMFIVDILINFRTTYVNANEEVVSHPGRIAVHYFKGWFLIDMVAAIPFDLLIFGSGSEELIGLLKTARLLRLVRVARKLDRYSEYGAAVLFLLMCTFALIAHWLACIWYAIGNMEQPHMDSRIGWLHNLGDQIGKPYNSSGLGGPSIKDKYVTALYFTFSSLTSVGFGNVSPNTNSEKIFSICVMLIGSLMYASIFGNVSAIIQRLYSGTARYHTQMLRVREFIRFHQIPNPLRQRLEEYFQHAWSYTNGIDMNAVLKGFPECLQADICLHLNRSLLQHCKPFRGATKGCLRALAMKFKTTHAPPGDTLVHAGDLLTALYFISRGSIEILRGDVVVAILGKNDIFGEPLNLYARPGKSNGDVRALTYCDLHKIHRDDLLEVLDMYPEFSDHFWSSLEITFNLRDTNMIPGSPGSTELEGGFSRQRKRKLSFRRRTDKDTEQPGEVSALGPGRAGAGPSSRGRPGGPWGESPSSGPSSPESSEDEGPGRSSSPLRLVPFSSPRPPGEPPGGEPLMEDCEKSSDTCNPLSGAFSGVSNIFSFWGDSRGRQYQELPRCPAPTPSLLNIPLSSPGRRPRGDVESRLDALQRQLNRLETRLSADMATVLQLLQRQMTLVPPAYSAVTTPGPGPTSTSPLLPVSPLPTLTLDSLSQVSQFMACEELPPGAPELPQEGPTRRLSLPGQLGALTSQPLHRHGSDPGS

Row | Structure (SMILES) | Kb (human H4 receptor) | IC50 (hERG) | Human H4 DMR fpKb (human H4 receptor) | hERG pIC50 (hERG)
1 | CCc1cc(-c2cc(N3CC(NC)C3)nc(N)n2)n(C)n1 [Example 25, 4-(3-Ethyl-1-methyl-1H-pyrazol-5-yl)-6-(3-(methylamino)azetidin-1-yl)pyrimidin-2-amine] | 100 nM | – | – | –
2 | CC(C)c1cc(N2CC[C@@H](N)C2)nc(N)n1 [JNJ-39758979, reference compound] | – | – | 8.5 | ≤4.0
3 | Cc1cc(C)c2nc(-c3cnc(NCCCC4CCN(C)CC4)nc3C)[nH]c2c1 [Toreforant, reference compound] | 12.6 nM | 3160 nM | – | –
4 | CNC1CN(c2cc(-c3cc(Cl)nn3C)nc(N)n2)C1 [Example 26, 4-(3-Chloro-1-methyl-1H-pyrazol-5-yl)-6-(3-(methylamino)azetidin-1-yl)pyrimidin-2-amine] | 15.8 nM | > 100000 nM | – | –
5 | CNC1CN(c2cc(-c3cnn(C(C)C)c3C)nc(N)n2)C1 [Example 22, 4-(1-Isopropyl-5-methyl-1H-pyrazol-4-yl)-6-(3-(methylamino)azetidin-1-yl)pyrimidin-2-amine] | 7.94 nM | > 100000 nM | – | –
6 | CCNC1CN(c2cc(-c3cnn(C(F)(F)F)c3)nc(N)n2)C1 [Example 7, 4-(3-(Ethylamino)azetidin-1-yl)-6-(1-(trifluoromethyl)-1H-pyrazol-4-yl)pyrimidin-2-amine] | 7.94 nM | 42700 nM | – | –
7 | CNC1CN(c2cc(-c3cnn(C(F)F)c3C)nc(N)n2)C1 [Example 16, 4-(1-(Difluoromethyl)-5-methyl-1H-pyrazol-4-yl)-6-(3-(methylamino)azetidin-1-yl)pyrimidin-2-amine] | 2 nM | > 100000 nM | – | –
8 | CNC1CN(c2cc(-c3cn(C)nc3Br)nc(N)n2)C1 [Example 31, 4-(3-Bromo-1-methyl-1H-pyrazol-4-yl)-6-(3-(methylamino)azetidin-1-yl)pyrimidin-2-amine] | 7.94 nM | > 31600 nM | – | –
9 | CCc1[nH]nc(-c2cc(N3CC(NC)C3)nc(N)n2)c1C [Example 40, 4-(5-Ethyl-4-methyl-1H-pyrazol-3-yl)-6-(3-(methylamino)azetidin-1-yl)pyrimidin-2-amine] | – | > 31600 nM | – | –
10 | CNC1CN(c2cc(-c3cnn(CC(F)(F)F)c3C)nc(N)n2)C1 [Example 12, 4-(5-Methyl-1-(2,2,2-trifluoroethyl)-1H-pyrazol-4-yl)-6-(3-(methylamino)azetidin-1-yl)pyrimidin-2-amine] | 7.94 nM | 38900 nM | – | –
11 | CN[C@@H]1CCN(c2cc(-c3cnn(C)c3Cl)nc(N)n2)C1 [Example 5, (R)-4-(5-Chloro-1-methyl-1H-pyrazol-4-yl)-6-(3-(methylamino)pyrrolidin-1-yl)pyrimidin-2-amine] | 3.98 nM | > 100000 nM | – | –
12 | CN1CCN(C(=O)c2cc3cc(Cl)ccc3[nH]2)CC1 [JNJ-7777120, reference compound] | – | ≥ 100000 nM | – | –

The next lines start with results.

Row | Kb (human H4 receptor) | Structure (SMILES) | IC50 (hERG) | Human H4 DMR fpKb (human H4 receptor) | hERG pIC50 (hERG)
13 | 100 nM | CCn1cc(-c2cc(N3CC[C@@H](NC)C3)nc(N)n2)c(C)n1 [Example 14, (R)-4-(1-Ethyl-3-methyl-1H-pyrazol-4-yl)-6-(3-(methylamino)pyrrolidin-1-yl)pyrimidin-2-amine] | 28800 nM | – | –
14 | 7.94 nM | CNC1CN(c2cc(-c3cn(C)nc3C)nc(N)n2)C1 [Example 18, 4-(1,3-Dimethyl-1H-pyrazol-4-yl)-6-(3-(methylamino)azetidin-1-yl)pyrimidin-2-amine] | > 100000 nM | – | –
15 | 0.794 nM | CN[C@@H]1CCN(c2cc(NCC3CC3)nc(N)n2)C1 [PF-3893787, reference compound] | 7940 nM | – | –
16 | 1.58 nM | CNC1CN(c2cc(-c3cnn(C)c3Br)nc(N)n2)C1 [Example 30, 4-(5-Bromo-1-methyl-1H-pyrazol-4-yl)-6-(3-(methylamino)azetidin-1-yl)pyrimidin-2-amine] | > 100000 nM | – | –
17 | 50.1 nM | CNC1CN(c2cc(-c3cn(CC(F)(F)F)nc3C)nc(N)n2)C1 [Example 19, 4-(3-Methyl-1-(2,2,2-trifluoroethyl)-1H-pyrazol-4-yl)-6-(3-(methylamino)azetidin-1-yl)pyrimidin-2-amine] | > 31600 nM | – | –
18 | 31.6 nM | CNC1CN(c2cc(-c3c[nH]nc3C(F)(F)F)nc(N)n2)C1 [Example 37, 4-(3-(Methylamino)azetidin-1-yl)-6-(3-(trifluoromethyl)-1H-pyrazol-4-yl)pyrimidin-2-amine] | > 31600 nM | – | –
19 | 10 nM | CNC1CN(c2cc(-c3cn(C(C)C)nc3C)nc(N)n2)C1 [Example 11, 4-(1-Isopropyl-3-methyl-1H-pyrazol-4-yl)-6-(3-(methylamino)azetidin-1-yl)pyrimidin-2-amine] | > 100000 nM | – | –
20 | 12.6 nM | CNC1CN(c2cc(-c3cnn(CC(F)F)c3)nc(N)n2)C1 [Example 9, 4-(1-(2,2-Difluoroethyl)-1H-pyrazol-4-yl)-6-(3-(methylamino)azetidin-1-yl)pyrimidin-2-amine] | > 100000 nM | – | –
21 | 3.98 nM | CNC1CN(c2cc(-c3c[nH]nc3C)nc(N)n2)C1 [Example 39, 4-(3-Methyl-1H-pyrazol-4-yl)-6-(3-(methylamino)azetidin-1-yl)pyrimidin-2-amine] | > 31600 nM | – | –
22 | 126 nM | CNC1CN(c2cc(-c3cc(C)nn3C)nc(N)n2)C1 [Example 24, 4-(1,3-Dimethyl-1H-pyrazol-5-yl)-6-(3-(methylamino)azetidin-1-yl)pyrimidin-2-amine] | > 100000 nM | – | –
23 | 5.01 nM | CNC1CN(c2cc(-c3cnn(CCF)c3)nc(N)n2)C1 [Example 10, 4-(1-(2-Fluoroethyl)-1H-pyrazol-4-yl)-6-(3-(methylamino)azetidin-1-yl)pyrimidin-2-amine] | > 100000 nM | – | –
24 | 10 nM | CCn1cc(-c2cc(N3CC(NC)C3)nc(N)n2)c(C)n1 [Example 13, 4-(1-Ethyl-3-methyl-1H-pyrazol-4-yl)-6-(3-(methylamino)azetidin-1-yl)pyrimidin-2-amine] | > 100000 nM | – | –
25 | 1.58 nM | CNC1CN(c2cc(-c3cn(C)nc3Cl)nc(N)n2)C1 [Example 29, 4-(3-Chloro-1-methyl-1H-pyrazol-4-yl)-6-(3-(methylamino)azetidin-1-yl)pyrimidin-2-amine] | > 100000 nM | – | –
26 | 2.51 nM | CNC1CN(c2cc(-c3cn(C(F)F)nc3C)nc(N)n2)C1 [Example 4, 4-(1-(Difluoromethyl)-3-methyl-1H-pyrazol-4-yl)-6-(3-(methylamino)azetidin-1-yl)pyrimidin-2-amine] | > 100000 nM | – | –
27 | 1 nM | CNC1CN(c2cc(-c3n[nH]c(C(F)(F)F)c3C)nc(N)n2)C1 [Example 17, 4-(4-Methyl-5-(trifluoromethyl)-1H-pyrazol-3-yl)-6-(3-(methylamino)azetidin-1-yl)pyrimidin-2-amine] | > 100000 nM | – | –
28 | 7.94 nM | CCc1cc(-c2cc(N3CC(NC)C3)nc(N)n2)n[nH]1 [Example 41, 4-(5-Ethyl-1H-pyrazol-3-yl)-6-(3-(methylamino)azetidin-1-yl)pyrimidin-2-amine] | > 31600 nM | – | –
29 | 15.8 nM | CNC1CN(c2cc(-c3cc(C(F)(F)F)nn3C)nc(N)n2)C1 [Example 27, 4-(1-Methyl-3-(trifluoromethyl)-1H-pyrazol-5-yl)-6-(3-(methylamino)azetidin-1-yl)pyrimidin-2-amine] | 44700 nM | – | –
30 | 6.31 nM | CNC1CN(c2cc(-c3[nH]nc(Cl)c3Cl)nc(N)n2)C1 [Example 42, 4-(4,5-Dichloro-1H-pyrazol-3-yl)-6-(3-(methylamino)azetidin-1-yl)pyrimidin-2-amine] | > 100000 nM | – | –
